Measured values reported in publication PMC11510499, “Mechanism-Based Allylic Carbasugar Chlorides That Form Covalent Intermediates with α- and β-Galactosidases” (Molecules, 2024).
Entries after “also recorded” stand apart in the source; their conditions may differ.

How the values were obtained:
Type in all cases: biochemical
[1] = biological target: T1, Human α-galactosidase (GalA) (Homo sapiens, UniProt P06280); test: Covalent inhibition (inactivation) kinetics of Human α-galactosidase (GalA); conditions: for covalent inhibition observed: at 5 mM inhibitor, NIO = No inhibition observed, pH 4.6, 37 °C
T1 construct: purchased Biotechne
T1 sequence (P06280 32-429): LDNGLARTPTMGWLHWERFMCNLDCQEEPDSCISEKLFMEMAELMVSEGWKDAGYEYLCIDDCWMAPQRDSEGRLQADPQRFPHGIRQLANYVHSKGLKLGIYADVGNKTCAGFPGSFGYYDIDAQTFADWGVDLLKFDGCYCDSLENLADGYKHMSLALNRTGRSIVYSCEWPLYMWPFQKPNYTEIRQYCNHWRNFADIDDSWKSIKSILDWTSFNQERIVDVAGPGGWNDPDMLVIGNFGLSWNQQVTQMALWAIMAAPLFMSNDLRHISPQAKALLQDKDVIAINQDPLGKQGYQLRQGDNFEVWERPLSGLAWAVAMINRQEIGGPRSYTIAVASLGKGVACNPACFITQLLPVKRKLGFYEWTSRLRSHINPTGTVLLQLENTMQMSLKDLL
Protocol: (§1) Recombinant Human α-galactosidase (GalA) was purchased from Biotechne, and Aspergillus oryzae β-galactosidase was purchased from Sigma. We calculated the various rate constants for covalent inhibition of these two glycosidases by compounds 1 to 4 by use of either a classical jump dilution assay or a continuous assay protocol.
(§2) First, we incubated the enzyme using at least five different inhibitor concentrations in the appropriate buffer. We then ‘jump-diluted’ the inactivation mixture by adding 4 µL aliquots of the inhibition mixture to a pre-equilibrated 196 µL buffered solution containing substrate (see assay conditions section). We monitored the enzymatic activity using either UV-vis (Cary300, Agilent Technologies, Santa Clara, CA, United States) or fluorescence (Cary Eclipse). All rate constants for inhibition (kobs) were calculated using a standard nonlinear least squares fit of enzyme activity (%) versus time data to a first-order equation. We then used a standard Michaelis–Menten expression to evaluated kinact and kinact/Ki for covalent inhibition using a standard nonlinear least squares fitting routine. However, in cases where we noted insufficient saturation of inhibitor, we used a standard linear fit of the kobs versus covalent inhibitor concentration to obtain the inhibition rate constant kinact/Ki.
(§3) Second, we also used a continuous assay protocol in which we added the enzyme to a pre-equilibrated buffered mixture containing substrate and inhibitor. We monitored the reaction continuously until we noted that the rate of fluorophore (or chromophore) became linear following the initial first-order process. We repeated these experiments for at least five other inhibitor concentrations. We calculated the apparent rate constant (kapp) at every inhibitor concentration by fitting the progress curves to equation 1 (for UV-Vis or a similar equation for fluorescence data), where Vi is the initial velocity at t = 0 and Vf is the velocity at t = ∞ [31]. (1) Abs=νft+νi−νf/kapp1−e^−kappt
(§4) The kapp values versus inhibitor concentrations were then fit to a modified Michaelis–Menten expression for competitive inhibition (equation 2), which gives the second-order inhibition parameter kinact/Ki only. (2) kapp=kreact+kinact/KiI/1+S/Km
(§5) The release of 4-nitrophenol was monitored at 400 nm, while the release of 4-methylumbelliferone was monitored at 365 nm excitation and 445 emission wavelengths. All rate constants were determined by fitting experimental data on the computer program GraphPad Prism 10.0 (GraphPad Software, Boston, MA, USA).

[2] = biological target: T2, A. oryzae GH35 β-galactosidase (LacA) (Aspergillus oryzae, UniProt Q2UCU3); test: Covalent inhibition (inactivation) kinetics of A. oryzae β-galactosidase (LacA); conditions: for kinact/Ki: 50 mM sodium acetate buffer
T2 construct: purchased Sigma
T2 sequence (Q2UCU3 19-1005): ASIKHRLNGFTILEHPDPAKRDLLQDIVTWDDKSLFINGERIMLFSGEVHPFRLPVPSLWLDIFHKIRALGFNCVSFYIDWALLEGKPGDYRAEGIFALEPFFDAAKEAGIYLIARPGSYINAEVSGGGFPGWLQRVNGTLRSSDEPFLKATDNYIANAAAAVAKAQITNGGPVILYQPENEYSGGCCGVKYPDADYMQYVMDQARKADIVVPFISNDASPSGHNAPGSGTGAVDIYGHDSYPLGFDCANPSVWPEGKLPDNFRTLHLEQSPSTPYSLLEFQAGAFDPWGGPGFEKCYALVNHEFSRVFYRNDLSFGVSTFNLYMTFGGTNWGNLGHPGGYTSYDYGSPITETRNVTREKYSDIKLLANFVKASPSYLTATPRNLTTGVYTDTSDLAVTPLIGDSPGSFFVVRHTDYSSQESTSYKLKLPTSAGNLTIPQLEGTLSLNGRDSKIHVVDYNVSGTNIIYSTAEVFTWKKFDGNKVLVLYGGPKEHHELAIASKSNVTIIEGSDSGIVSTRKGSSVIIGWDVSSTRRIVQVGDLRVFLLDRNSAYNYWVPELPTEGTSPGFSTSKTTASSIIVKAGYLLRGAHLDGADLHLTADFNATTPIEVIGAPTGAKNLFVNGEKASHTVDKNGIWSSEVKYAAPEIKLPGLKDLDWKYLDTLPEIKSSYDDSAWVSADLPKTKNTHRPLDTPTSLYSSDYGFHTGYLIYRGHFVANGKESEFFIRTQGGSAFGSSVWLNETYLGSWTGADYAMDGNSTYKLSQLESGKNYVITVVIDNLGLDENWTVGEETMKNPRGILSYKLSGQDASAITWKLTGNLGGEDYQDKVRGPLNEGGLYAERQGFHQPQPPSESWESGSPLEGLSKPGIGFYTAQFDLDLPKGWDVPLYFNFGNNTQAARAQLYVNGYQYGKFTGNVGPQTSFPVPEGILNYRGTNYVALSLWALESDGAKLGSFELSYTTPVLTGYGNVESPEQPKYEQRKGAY
Protocol: as §1, §2, §3, §4, §5

[3] = biological target: T2, A. oryzae GH35 β-galactosidase (LacA); test: Reactivation kinetics of covalently inhibited A. oryzae β-galactosidase (LacA); conditions: 50 mM sodium acetate buffer, pH 4.5, 0.1% BSA, 37 °C; for t1/2: half-life of covalent intermediate
Protocol: (§6) In summary, all inhibitors that covalently label either Human α-galactosidase or Aspergillus oryzae β-galactosidase display linear second-order kinetics where the slopes of the graphs give kinact/Ki (Table 1 and Table 2). That is, no saturation binding is noted even up to inhibitor concentrations of 8 mM, i.e., Ki » 8 mM. […] As a result, reactivation kinetics were monitored by diluting a quantity of inhibited enzyme into a buffered solution containing substrate. Shown in Figure 3 are the measured gradients (time intervals of 100 s) from the absorbance versus time plot of the reactivation for GH35 A. oryzae β-galactosidase with 1–3.
(§7) We monitored a concentrated solution of enzyme and inhibitor at 37 °C until the measured enzyme activity dropped to under 5% of that initially measured. We then added a small volume (typically 0.5 µL) to a pre-equilibrated reactivation buffer containing substrate (200 µL). We then continuously monitored the release of either the chromophore or the fluorophore. We then calculated signal versus time gradient slope at uniform time intervals to give reaction rates. We fit these computed values to a standard first-order rate equation (Prism 10.0) to give us the first order reactivation rate constant (kreact).

[4] = biological target: T1, Human α-galactosidase (GalA); test: Reactivation kinetics of covalently inhibited Human α-galactosidase (GalA); conditions: 50 mM sodium citrate buffer, pH 4.6, 50 mM NaCl, 0.1% BSA, 37 °C; for t1/2: half-life of covalent intermediate
Protocol: as §6, §7

Compound	covalent inhibition observed [1]	kinact/KI ([2]; pH 4.5, 50 mM sodium acetate buffer, pH 4.5, 0.1% BSA, 37 °C) [M⁻¹ s⁻¹]	kreact [3]	t1/2 [3] [min]	kinact/Ki ([1]; 50 mM sodium citrate buffer, pH 4.6, 50 mM NaCl, 0.1% BSA, 37 °C) [M⁻¹ s⁻¹]	kinact/Ki ([2]; pH 4.5, 0.1% BSA, 37 °C) [M⁻¹ s⁻¹]	kreact [4]	t1/2 [4] [min]	kinact/KI ([1]; pH 4.6, 50 mM sodium citrate buffer, pH 4.6, 50 mM NaCl, 0.1% BSA, 37 °C) [M⁻¹ s⁻¹]	covalent inhibition observed ([2]; at 1 mM inhibitor, NIO = No inhibition observed, pH 4.5, 37 °C)
O[C@@H]1[C@@H](O)[C@@H](O)C=C[C@H]1Cl [Compound 1, 5,5a-didehydro-5a-carba-β-L-arabino-hexopyranosyl chloride]	no measurable covalent inhibition; also recorded: NIO ^a at 5 mM	17 ± 0.5	(2.5 ± 0.1) × 10^−3 s^−1	4.6 ± 0.2						
OC1C=CC(Cl)C(O)C1O (stereo not drawn) [Compound 3]			(2.6 ± 0.2) × 10^−3 s^−1	4.5 ± 0.3	0.18 ± 0.01	2.7 ± 0.04	(4.9 ± 0.2) × 10^−4 s^−1	23.4 ± 0.9		
OC1C=CC(Cl)C(O)C1O (stereo not drawn) [Compound 2]			(2.6 ± 0.2) × 10^−3 s^−1	4.5 ± 0.3		47 ± 2	(5.1 ± 0.2) × 10^−4 s^−1	22.5 ± 0.7	0.25 ± 0.004	
O[C@@H]1[C@H](O)[C@@H](O)C=C[C@H]1Cl [Compound 4]	no measurable covalent inhibition; also recorded: NIO ^a at 5 mM									no activity; also recorded: NIO ^a at 1 mM
